In ChEMBL document CHEMBL1146046, “Synthesis and biological evaluations of sulfanyltriazoles as novel HIV-1 non-nucleoside reverse transcriptase inhibitors” (Bioorg Med Chem Lett, 2006):

What was measured:
Type in all cases: functional, organism-based
[1] = system: Human immunodeficiency virus 1; assay: Antiviral activity against HIV1
[2] = system: Human immunodeficiency virus 1; assay: Antiviral activity against HIV1 NNTRI resistant K103N mutant
[3] = system: Human immunodeficiency virus 1; assay: Antiviral activity against HIV1 NNTRI resistant Y188L mutant
[4] = system: Human immunodeficiency virus 1; assay: Antiviral activity against HIV1 NNTRI resistant L100I mutant
[5] = system: Human immunodeficiency virus 1; assay: Antiviral activity against HIV1 NNTRI resistant Y181C mutant
[6] = system: Human immunodeficiency virus 1; assay: Antiviral activity against HIV1 NNTRI resistant K103N/L100I mutant

| Compound | EC50 [1] | IC50 [1] | EC50 [2] | EC50 [3] | EC50 [4] | EC50 [5] | EC50 [6] |
| --- | --- | --- | --- | --- | --- | --- | --- |
| Cc1ccc(-n2c(C)nnc2SCC(=O)N2CCCCC2)cc1 | > 10000 nM | > 10000 nM | – | – | – | – | – |
| Cc1ccc(-n2c(C)nnc2SC/C(S)=N/c2ccccc2Cl)cc1 | > 10000 nM | > 10000 nM | – | – | – | – | – |
| COc1ccccc1-n1c(C)nnc1SCC(=O)Nc1ccccc1Cl | 59 nM | > 10000 nM | 1120 nM | > 1650 nM | 100 nM | 1050 nM | – |
| Cc1ccc(-n2c(C)nnc2SCC(=O)Nc2ccc(C#N)cc2)cc1 | > 10000 nM | > 10000 nM | – | – | – | – | – |
| Cc1ccc(-n2c(C)nnc2SCC(=O)Nc2cccc(Br)c2)cc1 | > 10000 nM | > 10000 nM | – | – | – | – | – |
| Cc1ccc(-n2c(C)nnc2SCC(=O)Nc2cc(Cl)ccc2Cl)cc1 | 37 nM | > 10000 nM | 1040 nM | > 10000 nM | 835 nM | 769 nM | – |
| Cc1ccc(-n2c(C)nnc2SCC(=O)Nc2ccccc2F)cc1 | 68 nM | > 10000 nM | 3270 nM | > 10000 nM | 1380 nM | 4030 nM | – |
| COc1cccc(NC(=O)CSc2nnc(C)n2-c2ccc(C)cc2)c1 | 22 nM | > 10000 nM | 82 nM | 2190 nM | 31 nM | 161 nM | – |
| COc1ccc(NC(=O)CSc2nnc(C)n2-c2ccc(C)cc2)cc1 | 1840 nM | > 10000 nM | – | – | – | – | – |
| Cc1ccc(-n2c(C)nnc2SCC(=O)Nc2cccc(C)c2C)cc1 | 128 nM | > 10000 nM | – | – | – | – | – |
| Cc1ccc(-n2c(C)nnc2SCC(=O)Nc2ccccc2C(F)(F)F)cc1 | 72 nM | > 10000 nM | 1510 nM | > 10000 nM | 488 nM | 1380 nM | – |
| Cc1nnc(SCC(=O)Nc2ccccc2Cl)n1-c1cccc2c1OCCO2 | 18 nM | > 10000 nM | 565 nM | > 3330 nM | 170 nM | 219 nM | – |
| Cc1ccc(-n2c(SCC(=O)Nc3ccccc3Cl)nnc2-c2ccc(Cl)cc2)cc1 | 3780 nM | > 10000 nM | – | – | – | – | – |
| Cc1ccc(-n2c(Cc3ccccc3)nnc2SCC(=O)Nc2ccccc2Cl)cc1 | 1420 nM | > 10000 nM | – | – | – | – | – |
| Cc1ccc(-n2c(C)nnc2SCC(=O)Nc2ccncn2)cc1 | > 10000 nM | > 10000 nM | – | – | – | – | – |
| Cc1ccc(-n2c(C)nnc2SCC(=O)Nc2ccccc2Cl)cc1 | 3 nM | > 10000 nM | 65 nM | 4310 nM | – | 23 nM | 182 nM |
| Cc1ccc(-n2c(C)nnc2SCC(=O)Nc2ccc(Cl)cc2Cl)cc1 | 20 nM | > 10000 nM | 577 nM | > 3330 nM | 186 nM | 440 nM | – |
| COc1ccc(-n2c(C)nnc2SCC(=O)Nc2ccccc2Cl)cc1 | 79 nM | > 10000 nM | 913 nM | > 3330 nM | 1230 nM | 1430 nM | – |
| Cc1nnc(SCC(=O)Nc2ccccc2Cl)n1C | > 10000 nM | > 10000 nM | – | – | – | – | – |
| Cc1ccc(-n2c(C)nnc2SCC(=O)N2CCOCC2)cc1 | > 10000 nM | > 10000 nM | – | – | – | – | – |
| Cc1ccc(-n2c(C)nnc2SCC(=O)Nc2ccccc2[N+](=O)[O-])cc1 | 1 nM | > 10000 nM | 6 nM | 3600 nM | – | 16 nM | 24 nM |
| O=C1Nc2ccc(Cl)cc2C(C#CC2CC2)(C(F)(F)F)O1 (single isomer, unassigned) [EFAVIRENZ] | – | 10000 nM | 19 nM | – | 13 nM | – | – |
| Cc1ccnc2c1NC(=O)c1cccnc1N2C1CC1 [NEVIRAPINE] | – | > 10000 nM | – | > 10000 nM | – | > 10000 nM | – |

Now from value to compound, other results behind:

| EC50 [1] | IC50 [1] | Compound | EC50 [2] | EC50 [3] | EC50 [4] | EC50 [5] | EC50 [6] |
| --- | --- | --- | --- | --- | --- | --- | --- |
| > 10000 nM | > 10000 nM | CCn1c(C)nnc1SCC(=O)Nc1ccccc1Cl | – | – | – | – | – |
| 3410 nM | > 10000 nM | Cc1nnc(SCC(=O)Nc2ccccc2Cl)n1Cc1ccccc1 | – | – | – | – | – |
| 1360 nM | > 10000 nM | Cc1ccc(-n2c(C)nnc2SCC(=O)Nc2ccc(Cl)cc2)cc1 | – | – | – | – | – |
| 2050 nM | > 10000 nM | Cc1ccc(-n2c(C)nnc2SCC(=O)Nc2ccccc2)cc1 | – | – | – | – | – |
| > 10000 nM | > 10000 nM | Cc1ccc(-n2c(C)nnc2SCC(=O)Nc2ccccn2)cc1 | – | – | – | – | – |
| 112 nM | > 10000 nM | Cc1ccc(-n2c(C)nnc2SCC(=O)Nc2ccccc2C)cc1 | – | – | – | – | – |
| > 10000 nM | > 10000 nM | Cc1ccc(NC(=O)CSc2nnc(C)n2-c2ccc(C)cc2)cc1 | – | – | – | – | – |
| > 10000 nM | > 10000 nM | Cc1ccc(-n2c(C)nnc2SCC(=O)Nc2cccc(C#N)c2)cc1 | – | – | – | – | – |
| > 10000 nM | > 10000 nM | CC(=O)N1CCN(C(=O)CSc2nnc(C)n2-c2ccc(C)cc2)CC1 | – | – | – | – | – |
| 170 nM | > 10000 nM | Cc1ccc(-n2c(C)nnc2SCC(=O)Nc2ccccc2C#N)cc1 | – | – | – | – | – |
| > 10000 nM | > 10000 nM | Cc1ccc(-n2c(C)nnc2SCC(=O)Nc2ccc(Br)cc2)cc1 | – | – | – | – | – |
| > 10000 nM | > 10000 nM | Cc1ccc(-n2c(C)nnc2SCC(=O)Nc2ccc([N+](=O)[O-])cc2)cc1 | – | – | – | – | – |
| > 10000 nM | > 10000 nM | Cc1ccc(-n2c(C)nnc2SCC(=O)Nc2ccccc2Br)cc1 | – | – | – | – | – |
| 1070 nM | > 10000 nM | Cc1ccc(-n2c(COc3ccccc3)nnc2SCC(=O)Nc2ccccc2Cl)cc1 | – | – | – | – | – |
| 4210 nM | > 10000 nM | Cc1ccc(-n2c(SCC(=O)Nc3ccccc3Cl)nnc2-c2ccncc2)cc1 | – | – | – | – | – |
| 2070 nM | > 10000 nM | COc1ccccc1-c1nnc(SCC(=O)Nc2ccccc2Cl)n1-c1ccc(C)cc1 | – | – | – | – | – |
| 412 nM | > 10000 nM | Cc1ccc(-n2c(C)nnc2SCC(=O)Nc2ccc3ccccc3c2)cc1 | – | – | – | – | – |
| > 10000 nM | > 10000 nM | CCCCCCCCCNC(=O)CSc1nnc(C)n1-c1ccc(C)cc1 | – | – | – | – | – |
| > 10000 nM | > 10000 nM | Cc1ccc(-n2c(C)nnc2SCC(=O)NC(C)(C)C)cc1 | – | – | – | – | – |
| > 10000 nM | > 10000 nM | COC(=O)c1cccc(NC(=O)CSc2nnc(C)n2-c2ccc(C)cc2)c1 | – | – | – | – | – |
| 215 nM | > 10000 nM | Cc1ccc(-n2c(C)nnc2SCC(=O)Nc2ccc(Cl)cc2C)cc1 | – | – | – | – | – |
| > 10000 nM | > 10000 nM | Cc1ccc(-n2c(C)nnc2SCC(=O)Nc2cccc([N+](=O)[O-])c2)cc1 | – | – | – | – | – |
| 822 nM | > 10000 nM | COC(=O)c1ccc(NC(=O)CSc2nnc(C)n2-c2ccc(C)cc2)cc1 | – | – | – | – | – |
| 310 nM | > 10000 nM | Cc1nnc(SCC(=O)Nc2ccccc2Cl)n1-c1ccccc1 | – | – | – | – | – |
| 614 nM | > 10000 nM | COC(=O)c1ccccc1NC(=O)CSc1nnc(C)n1-c1ccc(C)cc1 | – | – | – | – | – |
| 2870 nM | > 10000 nM | Cc1ccc(-n2c(C)nnc2SCC(=O)Nc2cccc(C(F)(F)F)c2)cc1 | – | – | – | – | – |
| > 10000 nM | > 10000 nM | Cc1ccc(-n2c(C)nnc2SCC(=O)N(C)c2ccccc2Cl)cc1 | – | – | – | – | – |
